The values that follow come from US20080255244A1, “CaM Kinase II Inhibitor Improves Retinoic Acid Therapy and Inhibits the Proliferation of Myeloid Leukemia Cells” (Fred Hutchinson Cancer Research Center, priority 2007, published 2008).

Experiment [1] relates to autophosphorylated CaMKIIγ in K562 cells. In words: Western blot of CaMKIIγ autophosphorylation in K562 cells. Format: cell-based, human. Conditions: gleevec 5 uM, ATRA five days. The method, then: (§1) FIG. 9. Terminal differentiation/apoptosis of myeloid leukemia cells is associated with decreased CaMKIIγ activation. (A) Lysates from the HL60, NB4 and U937 myeloid cell lines treated with ATRA (1 μM) for the indicated period of time were subjected to Western blots. (B) Lysates from the indicated myeloid cell lines treated for five days with the indicated concentration of ATRA were subjected to Western blots. (C) Lysates from HL60 cells treated with TPA (0.1 μM) for the indicated time were subjected to Western blots. (D) Lysates from NB4 cells treated with arsenic trioxide (1 uM) for the indicated time were subjected to Western blots.
FIG. 10. Inhibiting bcr-abl activity/expression inhibits CaMKIIγ activation. (A) Lysates from K562 cells undergoing growth arrest following treatment with gleevec (5 uM) for the indicated times were subjected to Western blots. (B) Lysates from TonB210.1 cells depleted of doxycycline for the indicated period of time were subjected to Western blots. (C) IL-3 dependent TonB210.1 cells were deprived of IL-3 for 24 hours (lane 1). The cells were then treated with the indicated compounds simultaneously with the addition of doxycycline (lanes 2-8). After 24 hours cell lysates were harvested and subjected to Western blots with the indicated CaMKII antibodies. (D) K562 cells were cultured for 48 hours with the indicated chemical inhibitors of specific signal transduction pathways. Cell lysates were harvested and subjected to Western blot analysis.
FIG. 12. CaMKII regulates multiple signal transduction pathways in myeloid cells. (A,B) Lysates from K562 cells cultured for the indicated time in KN93 were subjected to Western blots. (C) The K562 cells transduced as described in Materials and Methods with either (i) the doxycycline (DOX) inducible expression vector/transactivator harboring the full length, Lys^43 mutated, kinase dead CaMKIIγ (kdCaMKIIγ (Tet-on)) or (ii) the CaMKII shRNA generating plasmids, were cultured in liquid suspension in the presence or absence of DOX as indicated, and cell counts obtained after 48 hours. (D) Lysates from K562 cells transduced with the indicated vectors were subjected to Western blots utilizing the indicated antibodies. For lanes 2 and 4 doxycycline (DOX) treatment was for two days.
(§2) Antibodies and Western blots. Protein extracts, immunoprecipitations and Western blots were performed as previously detailed (Si J, Collins S J. IL-3-induced enhancement of retinoic acid receptor activity is mediated through Stat5, which physically associates with retinoic acid receptors in an IL-3-dependent manner. Blood 100: 4401-9 (2002)). Antibodies against CaMKI, CaMKIIγ, CaMKIV, c-myc, Stat3, Stat5, calmodulin, as well as the phosphospecific CaMKII (T286, 287) and phosphospecific CaMKI (T177) antibodies were from Santa Cruz Biotechnology. Antibodies against phospho-Stat1 (Ser727), phospho-Stat3 (Ser727 and Tyr 705), phospho-Stat5 (Tyr 694), phospho-p44/42 MAP kinase (Thr202/Tyr 204), p44/42 MAP kinase, phospho-p38 MAP kinase (Thr 180/Tyr 182), phospho-GSK3β (Ser9) were from Cell Signaling Technology. Antibodies against Stat1, GSK3β, β-catenin, PP2Ac, and cyclin D1 were from BD Biosciences.
In general terms: A western blot detects proteins with antibodies after separation by electrophoresis.

Experiment [2] concerns autophosphorylated CaMKIIγ in TonB210.1 cells. The experiment is described as follows: bcr-abl induced CaMKII autophosphorylation in TonB210.1 cells (Western blot). Format: cell-based. Particulars: TonB210.1 deprived of IL-3 for 24 hours, compound added with doxycycline.
Experiment [3] relates to Stat3 Ser727 phosphorylation in TonB210 cells. In words: bcr-abl induced Stat3 Ser727 phosphorylation in TonB210.1 cells (Western blot). Format: cell-based. Particulars: compound added immediately prior to doxycycline, 24 hours. On the procedure: FIG. 13. Stat3 is directly phosphorylated and activated by CaMKIIγ at Ser727. (A, i). Cell lysates from the indicated human leukemia cell lines were subjected to Western blots utilizing the indicated Stat3 antibodies. ii). Cell lysates from the same primary AML samples depicted in FIG. 1B were subjected to Western blots utilizing the indicated Stat3 antibodies. B). The IL-3 dependent TonB210.1 cells were deprived of IL-3 for 24 hours. The cells were then treated with the indicated compounds immediately prior to the addition of doxycycline. After an additional 24 hours cell lysates were harvested and subjected to Western blots with the indicated Stat3 antibodies. C). K562 cells were electroporated with a luciferase reporter driven by a Stat3 response element. The indicated concentrations of KN93 and the Stat 3 inhibitor, cucurbitacin I, were added and relative luciferase activity determined on cell lysates following 48 hours of culture. D, i) K562 cell lysates were immunoprecipitated with control IgG or a Stat3 antibody. The immunoprecipitates were then subjected to Western blot analysis with the indicated antibodies. ii,) A bacterial—expressed GST-Stat3 fusion protein was incubated in vitro with CaMKIIγ that had been immunoprecipitated from HL60 cells. Western blots were then performed on the reaction mixtures utilizing the indicated Stat3 antibodies. iii,). […]

The test system of another experiment is CaMKs. Conditions: inhibitors interfere with binding of Ca++/CaM to the CaMKs; cited from earlier work.
Experiment [4] relates to autophosphorylated CaMKIIγ in HL60 cells. In words: Western blot of CaMKIIγ autophosphorylation in HL60 cells. Format: cell-based, human. Conditions: for activated, autophosphorylated CaMKIIγ level: phospho-T286/7 antibody, ATRA 1 μM, TPA 0.1 μM. On the procedure:
FIG. 7. KN-62 regulates the differentiation of myeloid leukemia cell lines. (A) Wright Giemsa-stained HL-60 cells either (a) uninduced or treated for five days with (b) KN62 or (c) ATRA. (d) CD11b expression in HL-60 cells after five days exposure to KN62 (5 μM) or ATRA (1 μM). (B) Wright-Giemsa stained NB4 cells treated for five days with KN-62 (5 μM) and ATRA as indicated. […] (C) Cd11b expression of NB4 cells treated for five days with the indicated concentrations of RA and/or KN-62. (D) Western blots with the indicated antibodies were performed on HL60 cell lysates following incubation with KN62 for the indicated period of time. (E) Western blots of NB4 cell lysates following a five day incubation with the indicated compounds.
as §1
Protein extracts, Western blotting and co-immunoprecipitations. Westerns and co-immunoprecipitations were performed as previously detailed (Si, J., and Collins, S. J., Blood 100:4401-4409 (2002)).
as §2

For experiment [5], the system named is activated CaMKIIγ in HL60R cells. In words: Western blot of CaMKIIγ autophosphorylation in HL60R cells. Format: cell-based, human. Particulars: five days ATRA. On the procedure:
as §1
(§3) Antibodies and Western blots. Protein extracts, immunoprecipitations and Western blots were performed as previously detailed (Si J, Collins S J. IL-3-induced enhancement of retinoic acid receptor activity is mediated through Stat5, which physically associates with retinoic acid receptors in an IL-3-dependent manner. Blood 100: 4401-9 (2002)). Antibodies against CaMKI, CaMKIIγ, CaMKIV, c-myc, Stat3, Stat5, calmodulin, as well as the phosphospecific CaMKII (T286, 287) and phosphospecific CaMKI (T177) antibodies were from Santa Cruz Biotechnology. […]

Experiment [6] has as its system activated CaMKIIγ in KCL22 cells. In words: Western blot of CaMKIIγ autophosphorylation in KCL22 cells. Format: cell-based, human. Conditions: five days ATRA. On the procedure: as §1, §3

SMILES strings stand for the structures.

For the compound `COc1ccc(S(=O)(=O)N(CCO)c2ccccc2CN(C)C/C=C/c2ccc(Cl)cc2)cc1` [KN-93], the “activated, autophosphorylated CaMKIIγ level” value in experiment [1] is reported as “time dependent reduction”. In addition, the “bcr-abl (tet/doxycycline) restored CaMKII autophosphorylation” value in experiment [2] is recorded as “inhibited in a dose dependent manner”. Moreover, the “bcr-abl induced Stat3 Ser727 phosphorylation” value in experiment [3] was “blocked”. Besides, in the experiment on CaMKs, the IC50 (in general, the point on the concentration scale where inhibition reaches its midpoint) is 900 nM.

Take `CN([C@@H](Cc1ccc(OS(=O)(=O)c2cccc3cnccc23)cc1)C(=O)N1CCN(c2ccccc2)CC1)S(=O)(=O)c1cccc2cnccc12` [KN-62]: in experiment [4], the “total CaMKIIγ level” value was “did not induce any significant changes” and the “activated, autophosphorylated CaMKIIγ level” value is “marked reduction”. In experiment [2], the “bcr-abl (tet/doxycycline) restored CaMKII autophosphorylation” value is on record as “inhibited in a dose dependent manner”. The “bcr-abl induced Stat3 Ser727 phosphorylation” value in experiment [3] is reported as “blocked”. The IC50 in the experiment on CaMKs was 900 nM.

With `CC1=C(/C=C/C(C)=C/C=C/C(C)=C/C(=O)O)C(C)(C)CCC1` [ATRA, All-trans retinoic acid], the “total CaMKIIγ level” value in experiment [4] is recorded as “essentially unchanged”. The “activated, autophosphorylated CaMKIIγ level” value is reported as “marked decrease” in experiment [4] and “did not exhibit any decrease” in experiment [1]. Further, the “activated CaMKIIγ level” value in experiment [5] is “not observed”; in experiment [6] it was “did not exhibit any decrease”.
